Measured values: patent publication US9498483B2, “2,3,5-trisubstituted thiophene compounds and uses thereof” (priority 2010, dated 2016)

Legend:
[1] = system: HCV replicon I389luc-ubi-neo/NS3-3′/ET in ET (Huh-lucubineo-ET) cells; assay: Replicon assay (Biological Example 2), luciferase readout; type: cell-based; conditions: Hepatitis C virus
How it was run: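 EC50 values come from Hill fits of % inhibition of replicon-driven firefly luciferase, relative to no-compound wells. Compounds were serially diluted (10 points, 3-fold, 0.1 nM–50 μM final, 0.5% DMSO) onto ET replicon cells and read after 48 h.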

HCV polymerase = target: T1, HCV polymerase (Hepatitis C virus genotype 1b, UniProt Q9WMX2); assay: Polymerase assay of Biological Example 1 (IC50 values of Table 3); type: biochemical; conditions: IC50 values of Table 3, polymerase assay of Biological Example 1; read-out: NS5B-enzyme3
T1 construct: (His)6 (C); made in house; host or cells: XL-1 cells (E. coli, by own knowledge)

[2] = ET cells, luciferase activity 48 hours after compound

Structure (SMILES)	IC50 ([1]; between 100 nM and 5.0 uM)	IC50 (HCV polymerase)	IC50 [1, 2]
CC(C)(C)C#Cc1cc(N2C(=O)CN(S(=O)(=O)c3ccc4oc(=O)[nH]c4c3)C[C@H]2C2CCCCC2)c(C(=O)O)s1 [Compound 252, 3-[(R)-2-Cyclohexyl-6-oxo-4-(2-oxo-2,3-dihydro-benzooxazole-5-sulfonyl)-piperazin-1-yl]-5-(3,3-dimethyl-but-1-ynyl)-thiophene-2-carboxylic acid]	100 to 5000 nM	2 nM	
CNC(=O)c1ccc(S(=O)(=O)N2CC(=O)N(c3cc(C#CC(C)(C)C)sc3C(=O)O)[C@H](C3CCCCC3)C2)cc1 [Compound 253, 3-[(R)-2-Cyclohexyl-4-(4-methylcarbamoyl-benzenesulfonyl)-6-oxo-piperazin-1-yl]-5-(3,3-dimethyl-but-1-ynyl)-thiophene-2-carboxylic acid]		2 nM	≤ 100 nM
Cn1nccc1S(=O)(=O)N1CC(=O)N(c2cc(C#CC(C)(C)C)sc2C(=O)O)[C@H](C2CCCCC2)C1 [Compound 254, 3-[(R)-2-Cyclohexyl-4-(2-methyl-2H-pyrazole-3-sulfonyl)-6-oxo-piperazin-1-yl]-5-(3,3-dimethyl-but-1-ynyl)-thiophene-2-carboxylic acid]	100 to 5000 nM	15 nM	
Cc1ncc(S(=O)(=O)N2CC(=O)N(c3cc(C#CC(C)(C)C)sc3C(=O)O)[C@H](C3CCCCC3)C2)n1C [Compound 255, 3-[(R)-2-Cyclohexyl-4-(2,3-dimethyl-3H-imidazole-4-sulfonyl)-6-oxo-piperazin-1-yl]-5-(3,3-dimethyl-but-1-ynyl)-thiophene-2-carboxylic acid]	100 to 5000 nM	5 nM	
CCc1ccc(S(=O)(=O)N2CC(=O)N(c3cc(C#CC(C)(C)C)sc3C(=O)O)[C@H](C3CCCCC3)C2)cc1 [Compound 256, 3-[(R)-2-Cyclohexyl-4-(4-ethyl-benzenesulfonyl)-6-oxo-piperazin-1-yl]-5-(3,3-dimethyl-but-1-ynyl)-thiophene-2-carboxylic acid]		1 nM	≤ 100 nM
COc1cccc(S(=O)(=O)N2CC(=O)N(c3cc(C#CC(C)(C)C)sc3C(=O)O)[C@H](C3CCCCC3)C2)c1 [Compound 257, 3-[(R)-2-Cyclohexyl-4-(3-methoxy-benzenesulfonyl)-6-oxo-piperazin-1-yl]-5-(3,3-dimethyl-but-1-ynyl)-thiophene-2-carboxylic acid]		2 nM	≤ 100 nM
COc1ccccc1S(=O)(=O)N1CC(=O)N(c2cc(C#CC(C)(C)C)sc2C(=O)O)[C@H](C2CCCCC2)C1 [Compound 258, 3-[(R)-2-Cyclohexyl-4-(2-methoxy-benzenesulfonyl)-6-oxo-piperazin-1-yl]-5-(3,3-dimethyl-but-1-ynyl)-thiophene-2-carboxylic acid]		7 nM	≤ 100 nM
CC(C)(C)C#Cc1cc(N2C(=O)CN(S(=O)(=O)c3cccc(C#N)c3)C[C@H]2C2CCCCC2)c(C(=O)O)s1 [Compound 259, 3-[(R)-4-(3-Cyano-benzenesulfonyl)-2-cyclohexyl-6-oxo-piperazin-1-yl]-5-(3,3-dimethyl-but-1-ynyl)-thiophene-2-carboxylic acid]	100 to 5000 nM	7 nM	
Cc1nn(C)cc1S(=O)(=O)N1CC(=O)N(c2cc(C#CC(C)(C)C)sc2C(=O)O)[C@H](C2CCCCC2)C1 [Compound 260, 3-[(R)-2-Cyclohexyl-4-(1,3-dimethyl-1H-pyrazole-4-sulfonyl)-6-oxo-piperazin-1-yl]-5-(3,3-dimethyl-but-1-ynyl)-thiophene-2-carboxylic acid]	100 to 5000 nM	8 nM	
O=C(O)c1sc(-c2ccccc2)cc1N1C(=O)CN(Cc2ccc(N3CCCC3=O)cc2)C[C@H]1C1CCCCC1 [Compound 262, 3-{(R)-2-Cyclohexyl-6-oxo-4-[4-(2-oxo-pyrrolidin-1-yl)-benzyl]-piperazin-1-yl}-5-phenyl-thiophene-2-carboxylic acid]	100 to 5000 nM	25 nM	
O=C(O)c1sc(-c2ccccc2)cc1N1C(=O)CN(Cc2ccc(Cl)nc2)C[C@H]1C1CCCCC1 [Compound 267, 3-[(R)-4-(6-Chloro-pyridin-3-ylmethyl)-2-cyclohexyl-6-oxo-piperazin-1-yl]-5-phenyl-thiophene-2-carboxylic acid]	100 to 5000 nM	64 nM	
CN1CCC(N2CC(=O)N(c3cc(-c4ccccc4)sc3C(=O)O)[C@H](C3CCCCC3)C2)CC1 [Compound 271, 3-[(R)-2-Cyclohexyl-4-(1-methyl-piperidin-4-yl)-6-oxo-piperazin-1-yl]-5-phenyl-thiophene-2-carboxylic acid]		2470 nM	≥ 5000 nM
Cc1ccc(-c2cc(N3C(=O)CN(S(=O)(=O)c4ccc(N5CCCC5)nc4)C[C@H]3C3CCCCC3)c(C(=O)O)s2)cc1 [Compound 272, 3-[(R)-2-Cyclohexyl-6-oxo-4-(6-pyrrolidin-1-yl-pyridine-3-sulfonyl)-piperazin-1-yl]-5-p-tolyl-thiophene-2-carboxylic acid]		1 nM	≤ 100 nM
O=C(O)c1sc(-c2ccc(F)cc2)cc1N1C(=O)CN(S(=O)(=O)c2ccc(N3C[C@H]4C[C@@H]3CO4)nc2)C[C@H]1C1CCCCC1 [Compound 273, 3-{(R)-2-Cyclohexyl-4-[(1R,4R)-6-(2-oxa-5-aza-bicyclo[2.2.1]hept-5-yl)-pyridine-3-sulfonyl]-6-oxo-piperazin-1-yl}-5-(4-fluoro-phenyl)-thiophene-2-carboxylic acid]		1 nM	≤ 100 nM
O=C(O)c1sc(-c2ccc(Cl)cc2)cc1N1C(=O)CN(S(=O)(=O)c2ccc(N3C[C@H]4C[C@@H]3CO4)nc2)C[C@H]1C1CCCCC1 [Compound 274, 5-(4-Chloro-phenyl)-3-{(R)-2-cyclohexyl-4-[(1R,4R)-6-(2-oxa-5-aza-bicyclo[2.2.1]hept-5-yl)-pyridine-3-sulfonyl]-6-oxo-piperazin-1-yl}-thiophene-2-carboxylic acid]		1 nM	≤ 100 nM
CCn1cc(S(=O)(=O)N2CC(=O)N(c3cc(C#CC(C)(C)C)sc3C(=O)O)[C@H](C3CCCCC3)C2)cn1 [Compound 275, 3-[(R)-2-Cyclohexyl-4-(1-ethyl-1H-pyrazole-4-sulfonyl)-6-oxo-piperazin-1-yl]-5-(3,3-dimethyl-but-1-ynyl)-thiophene-2-carboxylic acid]		2 nM	≤ 100 nM
COc1cc(F)c(S(=O)(=O)N2CC(=O)N(c3cc(C#CC(C)(C)C)sc3C(=O)O)[C@H](C3CCCCC3)C2)cc1OC [Compound 276, 3-[(R)-2-Cyclohexyl-4-(2-fluoro-4,5-dimethoxy-benzenesulfonyl)-6-oxo-piperazin-1-yl]-5-(3,3-dimethyl-but-1-ynyl)-thiophene-2-carboxylic acid]		2 nM	≤ 100 nM
COc1ccc(S(=O)(=O)N2CC(=O)N(c3cc(C#CC(C)(C)C)sc3C(=O)O)[C@H](C3CCCCC3)C2)cc1OC [Compound 277, 3-[(R)-2-Cyclohexyl-4-(3,4-dimethoxy-benzenesulfonyl)-6-oxo-piperazin-1-yl]-5-(3,3-dimethyl-but-1-ynyl)-thiophene-2-carboxylic acid]		2 nM	≤ 100 nM
C[C@@H]1CN(c2ccc(S(=O)(=O)N3CC(=O)N(c4cc(-c5ccc(F)cc5)sc4C(=O)O)[C@H](C4CCCCC4)C3)cn2)C[C@H](C)O1 [Compound 278, 3-{(R)-2-Cyclohexyl-4-[6-((2R,6S)-2,6-dimethyl-morpholin-4-yl)-pyridine-3-sulfonyl]-6-oxo-piperazin-1-yl}-5-(4-fluoro-phenyl)-thiophene-2-carboxylic acid]		1 nM	≤ 100 nM
COC[C@@H]1CCCN1c1ccc(S(=O)(=O)N2CC(=O)N(c3cc(-c4ccc(F)cc4)sc3C(=O)O)[C@H](C3CCCCC3)C2)cn1 [Compound 279, 3-{(R)-2-Cyclohexyl-4-[6-((S)-2-methoxymethyl-pyrrolidin-1-yl)-pyridine-3-sulfonyl]-6-oxo-piperazin-1-yl}-5-(4-fluoro-phenyl)-thiophene-2-carboxylic acid]		1.1 nM	≤ 100 nM
O=C(O)c1sc(-c2ccc(F)cc2)cc1N1C(=O)CN(S(=O)(=O)c2ccc(N3CC[C@@H](F)C3)nc2)C[C@H]1C1CCCCC1 [Compound 280, 3-{(R)-2-Cyclohexyl-4-[6-((R)-3-fluoro-pyrrolidin-1-yl)-pyridine-3-sulfonyl]-6-oxo-piperazin-1-yl}-5-(4-fluoro-phenyl)-thiophene-2-carboxylic acid]		1 nM	≤ 100 nM
CC(C)(C)C#Cc1cc(N2C(=O)CN(S(=O)(=O)c3ccc(F)cc3F)C[C@H]2C2CCCCC2)c(C(=O)O)s1 [Compound 281, 3-[(R)-2-Cyclohexyl-4-(2,4-difluoro-benzenesulfonyl)-6-oxo-piperazin-1-yl]-5-(3,3-dimethyl-but-1-ynyl)-thiophene-2-carboxylic acid]		3 nM	≤ 100 nM
CC(C)(C)C#Cc1cc(N2C(=O)CN(S(=O)(=O)c3c(Cl)cccc3Cl)C[C@H]2C2CCCCC2)c(C(=O)O)s1 [Compound 282, 3-[(R)-2-Cyclohexyl-4-(2,6-dichloro-benzenesulfonyl)-6-oxo-piperazin-1-yl]-5-(3,3-dimethyl-but-1-ynyl)-thiophene-2-carboxylic acid]	100 to 5000 nM	31 nM	
COc1cc(S(=O)(=O)N2CC(=O)N(c3cc(C#CC(C)(C)C)sc3C(=O)O)[C@H](C3CCCCC3)C2)ccc1F [Compound 283, 3-[(R)-2-Cyclohexyl-4-(4-fluoro-3-methoxy-benzenesulfonyl)-6-oxo-piperazin-1-yl]-5-(3,3-dimethyl-but-1-ynyl)-thiophene-2-carboxylic acid]		4 nM	≤ 100 nM
